Laboratory results published in patent US20220000911A1, “COMBINATION OF GOLD COMPLEXES WITH OLAPARIB OR OTHER PARP1/2 INHIBITORS FOR USE IN THE TREATMENT OF CANCER RESISTANT TO SAID PARP1/2 INHIBITORS” (Varsity Pharmaceuticals Limited, priority 2020, published 2022).

What was measured:
[1] = tested on: wildtype A2780 ovarian cancer cells; experiment: CellTiter Glo proliferation inhibition, wild-type A2780 cells; format: cell-based; conditions: for IC50 / inhibition at 60 pM / inhibition at 0.00017 µM / inhibition at 0.00051 µM / inhibition at 0.00152 µM / inhibition at 0.00457 µM / inhibition at 0.01372 µM / inhibition at 0.04115 µM / inhibition at 0.12346 µM / inhibition at 0.37037 µM / inhibition at 10 µM / inhibition at 30 µM: Homo sapiens; for IC50: A2780; for inhibition at 60 pM / inhibition at 0.00017 µM / inhibition at 0.00051 µM / inhibition at 0.00152 µM / inhibition at 0.00457 µM / inhibition at 0.01372 µM / inhibition at 0.04115 µM / inhibition at 0.12346 µM / inhibition at 0.37037 µM / inhibition at 10 µM / inhibition at 30 µM / Mean Inhibition (n = 3): wildtype A2780; for inhibition at 60 pM: test conc. 0.06 nM; for inhibition at 60 pM / inhibition at 0.00017 µM / inhibition at 0.00051 µM / inhibition at 0.00152 µM / inhibition at 0.00457 µM / inhibition at 0.01372 µM / inhibition at 0.04115 µM / inhibition at 0.12346 µM / inhibition at 0.37037 µM / inhibition at 10 µM / inhibition at 30 µM: read-out: Mean Inhibition (n = 3); for inhibition at 0.00017 µM: test conc. 0.17 nM; for inhibition at 0.00051 µM: test conc. 0.51 nM; for inhibition at 0.00152 µM: test conc. 1.52 nM; for inhibition at 0.00457 µM: test conc. 4.57 nM; for inhibition at 0.01372 µM: test conc. 13.72 nM; for inhibition at 0.04115 µM: test conc. 41.15 nM; for inhibition at 0.12346 µM: test conc. 123.46 nM; for inhibition at 0.37037 µM: test conc. 370.37 nM; for inhibition at 10 µM: test conc. 10,000 nM; for inhibition at 30 µM: test conc. 30,000 nM; for Maximum inhibition observed in wild-type A2780 cells: concentration range 0.06 nM to 30,000 nM
Experimental: The A2780 cell line is an ovarian cancer cell line that was established from an ovarian endometroid adenocarcinoma tumour. […] It is commonly used as a model to observe the effects of, and test the potency of various chemicals, methods of delivery and treatments for ovarian cancer. […] The cells were diluted with culture medium and 40 μL of cell suspension (1000 cells/well) was added into each well of a 384-well cell culture plate. The plate was covered with a lid and left at room temperature without shaking for 30 minutes. The plate was then transferred to an incubator at 37° C. and 5% CO2 and left overnight. Test compounds were dissolved at a concentration of 30 mM in DMSO to create a stock solution. 45 μL of the stock solution was transferred to a 384 pp-plate. […] The plate was then spun at room temperature at 1,000 RPM for 1 minute. 40 nL of the diluted compound was then transferred from the compound source plate into the cell plate. The cell plate was then covered with a lid and placed in an incubator at 37° C. and 5% CO2 and left for 120 hours. 72 hours after treatment with the compound detection was conducted as discussed below. CellTiter Glo® reagents were thawed and equilibrated to room temperature. The cell plate was then removed from the incubator and equilibrated at room temperature for 15 minutes. 30 μL of the CellTiter Glo® reagents were then added into each well (at 1:1 to culture medium). The contents was mixed for 2 minutes on an orbital shaker to induce cell lysis and then the plates were allowed to incubate at room temperature for 30 minutes. Luminescence was then measured on an Envision reader (Perkin Elmer). The inhibition activity was calculated using the following formula: […]

[2] = tested on: olaparib resistant A2780 ovarian cancer cells; experiment: CellTiter Glo proliferation inhibition, olaparib resistant A2780 cells, single agents; format: cell-based; conditions: for IC50 / inhibition at 60 pM / inhibition at 0.00017 µM / inhibition at 0.00051 µM / inhibition at 0.00152 µM / inhibition at 0.00457 µM / inhibition at 0.01372 µM / inhibition at 0.04115 µM / inhibition at 0.12346 µM / inhibition at 0.37037 µM / inhibition at 10 µM / inhibition at 30 µM: Homo sapiens; for IC50: A2780; for inhibition at 60 pM / inhibition at 0.00017 µM / inhibition at 0.00051 µM / inhibition at 0.00152 µM / inhibition at 0.00457 µM / inhibition at 0.01372 µM / inhibition at 0.04115 µM / inhibition at 0.12346 µM / inhibition at 0.37037 µM / inhibition at 10 µM / inhibition at 30 µM / Mean Inhibition (n = 3): olaparib resistant A2780; for inhibition at 60 pM: test conc. 0.06 nM; for inhibition at 60 pM / inhibition at 0.00017 µM / inhibition at 0.00051 µM / inhibition at 0.00152 µM / inhibition at 0.00457 µM / inhibition at 0.01372 µM / inhibition at 0.04115 µM / inhibition at 0.12346 µM / inhibition at 0.37037 µM / inhibition at 10 µM / inhibition at 30 µM: read-out: Mean Inhibition (n = 3); for inhibition at 0.00017 µM: test conc. 0.17 nM; for inhibition at 0.00051 µM: test conc. 0.51 nM; for inhibition at 0.00152 µM: test conc. 1.52 nM; for inhibition at 0.00457 µM: test conc. 4.57 nM; for inhibition at 0.01372 µM: test conc. 13.72 nM; for inhibition at 0.04115 µM: test conc. 41.15 nM; for inhibition at 0.12346 µM: test conc. 123.46 nM; for inhibition at 0.37037 µM: test conc. 370.37 nM; for inhibition at 10 µM: test conc. 10,000 nM; for inhibition at 30 µM: test conc. 30,000 nM; for Maximum inhibition observed in olaparib resistant A2780 cells: concentration range 0.06 nM to 30,000 nM; for Resistance of the olaparib resistant cells to other PARPis: olaparib resistant A2780 cells
Experimental: A2780 ovarian cancer cells (wild-type “WT”) were cultured in RPMI 1640 Medium with 10% Fetal Bovine Serum (FBS).
To obtain cells resistant to olaparib, the cells were cultured in cell culture medium (RPMI 1640 Medium with 10% FBS) supplemented with 20 μM olaparib for one month in order to generate A2780 cells resistant to olaparib (“R”). After a month the cells were continuously cultured in the cell culture medium (RPMI 1640 Medium with 10% FBS) supplemented with 10 μM olaparib prior to use and for up to two months to maintain the resistance.
The cells were harvested from a flask into cell culture medium (RPMI 1640 Medium with 10% FBS) and then counted. The cells were diluted with culture medium and 40 μL of cell suspension (1000 cells/well) was added into each well of a 384-well cell culture plate. The plate was covered with a lid and left at room temperature without shaking for 30 minutes. The plate was then transferred to an incubator at 37° C. and 5% CO2 and left overnight.
Test compounds were dissolved at a concentration of 30 mM in DMSO to create a stock solution. 45 μL of the stock solution was transferred to a 384 pp-plate. […] The plate was then spun at room temperature at 1,000 RPM for 1 minute. 40 nL of the diluted compound was then transferred from the compound source plate into the cell plate. The cell plate was then covered with a lid and placed in an incubator at 37° C. and 5% CO2 and left for 120 hours. 72 hours after treatment with the compound detection was conducted as discussed below.
CellTiter Glo® reagents were thawed and equilibrated to room temperature. The cell plate was then removed from the incubator and equilibrated at room temperature for 15 minutes. 30 μL of the CellTiter Glo® reagents were then added into each well (at 1:1 to culture medium). The contents was mixed for 2 minutes on an orbital shaker to induce cell lysis and then the plates were allowed to incubate at room temperature for 30 minutes. Luminescence was then measured on an Envision reader (Perkin Elmer).
The inhibition activity was calculated using the following formula:
Inhibition (%)=100×(Lumvehicle−Lumsample)/(Lumvehicle−Lumblank),
where Lumvehicle is the luminescence of cells treated with 0.1% DMSO and Lumblank is cells in the culture medium.
The IC50 was calculated by fitting the curve using Xlfit (v5.3.1.3), equation 201: […]

IC50 [1] | IC50 [2] | Compound | inhibition at 60 pM [1] | inhibition at 0.00017 µM [1] | inhibition at 0.00051 µM [1] | inhibition at 0.00152 µM [1] | inhibition at 0.00457 µM [1] | inhibition at 0.01372 µM [1] | inhibition at 0.04115 µM [1] | inhibition at 0.12346 µM [1] | inhibition at 0.37037 µM [1] | inhibition at 10 µM [1] | inhibition at 30 µM [1] | Maximum inhibition observed in wild-type A2780 cells [1] | Mean Inhibition (n = 3) ([1]; test conc. 1,111.11 nM) | Mean Inhibition (n = 3) ([1]; test conc. 3,333.33 nM) | inhibition at 60 pM [2] | inhibition at 0.00017 µM [2] | inhibition at 0.00051 µM [2] | inhibition at 0.00152 µM [2] | other results
0.019 µM | 4.31 µM | Cn1ncnc1[C@H]1c2n[nH]c(=O)c3cc(F)cc(c23)N[C@@H]1c1ccc(F)cc1 [Talazoparib, talazoparib] | 0.69% | -0.65% | 2.86% | 6.64% | 23.4% | 35.8% | 46.3% | 56.3% | 64.5% | 77.6% | 78.9% | 80% | 71.38% | 76.54% | 5.28% | -0.08% | 6.18% | 2.33% | inhibition at 0.00457 µM [2]: 3.63%; inhibition at 0.01372 µM [2]: 4.9%; inhibition at 0.04115 µM [2]: -1.18%; inhibition at 0.12346 µM [2]: 2.95%; inhibition at 0.37037 µM [2]: 9.21%; inhibition at 10 µM [2]: 49%; inhibition at 30 µM [2]: 64.3%; Maximum inhibition observed in olaparib resistant A2780 cells [2]: 66%; Mean Inhibition (n = 3) ([2]; test conc. 1,111.11 nM): 15.45%; Mean Inhibition (n = 3) ([2]; test conc. 3,333.33 nM): 34.89%; Resistance of the olaparib resistant cells to other PARPis [2]: resistant
2.09 µM | 17.3 µM | NC(=O)c1cccc2cn(-c3ccc([C@@H]4CCCNC4)cc3)nc12 [Niraparib, niraparib] | 0.39% | -3.72% | -0.34% | 0.03% | 0.18% | 0.97% | -0.46% | 3.18% | 12.3% | 66.2% | 73.3% | 75% | 25.03% | 48.63% | -1.98% | 0.32% | -2.36% | 2.95% | inhibition at 0.00457 µM [2]: -0.19%; inhibition at 0.01372 µM [2]: -1.43%; inhibition at 0.04115 µM [2]: 0.1%; inhibition at 0.12346 µM [2]: -0.8%; inhibition at 0.37037 µM [2]: -0.56%; inhibition at 10 µM [2]: 18.9%; inhibition at 30 µM [2]: 43.9%; Maximum inhibition observed in olaparib resistant A2780 cells [2]: 47%; Mean Inhibition (n = 3) ([2]; test conc. 1,111.11 nM): −1.37%; Mean Inhibition (n = 3) ([2]; test conc. 3,333.33 nM): 5.54%; Resistance of the olaparib resistant cells to other PARPis [2]: resistant
